Results as given in ChEMBL document CHEMBL5030533, “Mechanistic Investigation of Site-specific DNA Methylating Agents Targeting Breast Cancer Cells” (J Med Chem, 2021).
Activity calls are given as the source filed them. No cut-off for these calls is given here.

Experiments:
Calf thymus DNA [1] = assay: Binding affinity to calf thymus DNA assessed as 3-MeA adduct formation at 100 uM after 24 hrs in presence of netropsin by RP-HPLC analysis relative to control; assay type: nucleic-acid assay; settings: Bos taurus
Calf thymus DNA [2] = assay: Binding affinity to calf thymus DNA assessed as 3-MeA adduct formation at 100 uM after 24 hrs by RP-HPLC analysis; assay type: nucleic-acid assay; settings: Bos taurus
Calf thymus DNA [3] = assay: Binding affinity to calf thymus DNA assessed as 3-MeA adduct formation at 25 uM after 24 hrs by RP-HPLC analysis relative to control; assay type: nucleic-acid assay; settings: Bos taurus
Calf thymus DNA [4] = assay: Binding affinity to calf thymus DNA assessed as 3-MeA adduct formation at 100 uM for 24 hrs in presence of netropsin by RP-HPLC analysis; assay type: nucleic-acid assay; settings: Bos taurus
MCF7 [5] = assay: Cytotoxicity against human MCF7 cells measured after 16 hrs by MTT assay; assay type: functional, cell-based; settings: MCF7, 16 h
Calf thymus DNA [6] = assay: Binding affinity to calf thymus DNA assessed as 3-MeA adduct formation at 50 uM after 24 hrs by RP-HPLC analysis; assay type: nucleic-acid assay; settings: Bos taurus
Calf thymus DNA [7] = assay: Binding affinity to calf thymus DNA assessed as 7-MeG adduct formation at 100 uM after 24 hrs by RP-HPLC analysis; assay type: nucleic-acid assay; settings: Bos taurus
Calf thymus DNA [8] = assay: Binding affinity to calf thymus DNA assessed as 7-MeG adduct formation at 100 uM after 24 hrs in presence of netropsin by RP-HPLC analysis; assay type: nucleic-acid assay; settings: Bos taurus
Calf thymus DNA [9] = assay: Binding affinity to calf thymus DNA assessed as 3-MeA adduct formation at 25 uM after 24 hrs by RP-HPLC analysis; assay type: nucleic-acid assay; settings: Bos taurus
Calf thymus DNA [10] = assay: Binding affinity to calf thymus DNA assessed as 7-MeG adduct formation at 50 uM after 24 hrs by RP-HPLC analysis; assay type: nucleic-acid assay; settings: Bos taurus
Calf thymus DNA [11] = assay: Binding affinity to calf thymus DNA assessed as 3-MeA adduct formation at 100 uM after 24 hrs by RP-HPLC analysis relative to control; assay type: nucleic-acid assay; settings: Bos taurus
Calf thymus DNA [12] = assay: Binding affinity to calf thymus DNA assessed as 3-MeA adduct formation at 50 uM after 24 hrs by RP-HPLC analysis relative to control; assay type: nucleic-acid assay; settings: Bos taurus
Calf thymus DNA [13] = assay: Binding affinity to calf thymus DNA assessed as 7-MeG adduct formation at 25 uM after 24 hrs by RP-HPLC analysis; assay type: nucleic-acid assay; settings: Bos taurus
[14] = target: T1, Estrogen receptor (Homo sapiens) (UniProt P03372); assay: Induction of ERalpha nuclear translocation in human MCF7 cells assessed as increase in TFF1 mRNA expression at 0.1 to 5 nM after 24 hrs by RT-qPCR analysis; assay type: cell-based; settings: dose 0.1-5 nM
T1 sequence (whole entry): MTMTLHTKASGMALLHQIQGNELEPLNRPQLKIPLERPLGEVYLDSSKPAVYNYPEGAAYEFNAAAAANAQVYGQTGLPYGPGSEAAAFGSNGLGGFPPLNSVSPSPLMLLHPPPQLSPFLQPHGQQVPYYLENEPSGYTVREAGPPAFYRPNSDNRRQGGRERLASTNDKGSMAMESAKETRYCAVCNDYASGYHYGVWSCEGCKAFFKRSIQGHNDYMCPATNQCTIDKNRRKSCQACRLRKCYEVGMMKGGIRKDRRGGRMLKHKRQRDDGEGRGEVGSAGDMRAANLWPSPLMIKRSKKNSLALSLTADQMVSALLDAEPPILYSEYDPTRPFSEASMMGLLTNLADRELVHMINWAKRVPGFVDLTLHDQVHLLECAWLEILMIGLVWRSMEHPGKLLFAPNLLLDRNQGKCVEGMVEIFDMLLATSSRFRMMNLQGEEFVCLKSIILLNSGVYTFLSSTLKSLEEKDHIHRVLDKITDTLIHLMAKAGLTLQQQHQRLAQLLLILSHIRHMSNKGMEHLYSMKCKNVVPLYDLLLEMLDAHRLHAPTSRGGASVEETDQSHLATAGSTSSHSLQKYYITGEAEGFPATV

[15] = target: T1, Estrogen receptor (Homo sapiens); assay: Induction of ERalpha nuclear translocation in human MCF7 cells assessed as increase in AGR2 mRNA expression at 0.1 to 5 nM after 24 hrs by RT-qPCR analysis; assay type: cell-based; settings: dose 0.1-5 nM
[16] = target: T1, Estrogen receptor (Homo sapiens); assay: Induction of ERalpha nuclear translocation in human MCF7 cells assessed as increase in IGFBP4 mRNA expression at 0.1 to 5 nM after 24 hrs by RT-qPCR analysis; assay type: cell-based; settings: dose 0.1-5 nM
[17] = target: T1, Estrogen receptor (Homo sapiens); assay: Induction of ERalpha nuclear translocation in human MCF7 cells assessed as increase in RGNEF mRNA expression at 0.1 to 5 nM after 24 hrs by RT-qPCR analysis; assay type: cell-based; settings: dose 0.1-5 nM
Estrogen receptor = target: T2, Estrogen receptor (Homo sapiens, UniProt P03372); assay: Binding affinity of ERalpha LBD (unknown origin) incubated for 2 hrs by LanthaScreen TR-FRET assay
T2 sequence (P03372 whole entry): T1 sequence (whole entry)

[18] = target: T1, Estrogen receptor (Homo sapiens); assay: Induction of ERalpha nuclear translocation in human MCF7 cells assessed as increase in LRP2 mRNA expression at 0.1 to 5 nM after 24 hrs by RT-qPCR analysis; assay type: cell-based; settings: dose 0.1-5 nM
Calf thymus DNA [19] = assay: Displacement of ethidium bromide from calf thymus DNA assessed as relative binding by measuring molar equivalents by spectrofluorometric assay; assay type: nucleic-acid assay; settings: Bos taurus
[20] = target: T1, Estrogen receptor (Homo sapiens); assay: Induction of ERalpha nuclear translocation in human MCF7 cells assessed as increase in RasGRP1 mRNA expression at 0.1 to 5 nM after 24 hrs by RT-qPCR analysis; assay type: cell-based; settings: dose 0.1-5 nM
[21] = target: T1, Estrogen receptor (Homo sapiens); assay: Induction of ERalpha nuclear translocation in human MCF7 cells assessed as increase in SLFN5 mRNA expression at 0.1 to 5 nM after 24 hrs by RT-qPCR analysis; assay type: cell-based; settings: dose 0.1-5 nM
Calf thymus DNA [22] = assay: Binding affinity to calf thymus DNA assessed as 3-MeA adduct formation at 5000 uM after 24 hrs in presence of netropsin by RP-HPLC analysis; assay type: nucleic-acid assay; settings: Bos taurus
Calf thymus DNA [23] = assay: Binding affinity to calf thymus DNA assessed as 3-MeA adduct formation at 5000 uM after 24 hrs by RP-HPLC analysis relative to control; assay type: nucleic-acid assay; settings: Bos taurus
Calf thymus DNA [24] = assay: Binding affinity to calf thymus DNA assessed as 3-MeA adduct formation at 5000 uM after 24 hrs in presence of netropsin by RP-HPLC analysis relative to control; assay type: nucleic-acid assay; settings: Bos taurus
Calf thymus DNA [25] = assay: Binding affinity to calf thymus DNA assessed as 3-MeA adduct formation at 5000 uM after 24 hrs by RP-HPLC analysis; assay type: nucleic-acid assay; settings: Bos taurus
[26] = target: T1, Estrogen receptor (Homo sapiens); assay: Induction of ERalpha nuclear translocation in human MCF7 cells at 15 nM after 5 hrs by immunofluorescence assay; assay type: cell-based
MCF7 [27] = assay: Cytotoxicity against ER positive human MCF7 cells at 100 uM incubated for 24 hrs in presence of estradiol by MTT assay; assay type: functional, cell-based
MCF7 [28] = assay: Cytotoxicity against ER positive human MCF7 cells incubated for 24 hrs in presence of estradiol by MTT assay; assay type: functional, cell-based; settings: MCF7, 24 h
MDA-MB-231 = assay: Cytotoxicity against ER negative human MDA-MB-231 cells incubated for 24 hrs in presence of estradiol by MTT assay; assay type: functional, cell-based; settings: MDA-MB-231, 24 h

SMILES | Activity (Calf thymus DNA [1]) [%] | Activity (Calf thymus DNA [3]) [%] | Activity (Calf thymus DNA [4]) [µmol] | EC50 (MCF7 [5]) [µM] | Activity (Calf thymus DNA [6]) [µmol] | Activity (Calf thymus DNA [7]) [µmol] | Activity (Calf thymus DNA [8]) [µmol] | Activity (Calf thymus DNA [9]) [µmol] | Activity (Calf thymus DNA [10]) [µmol] | Activity (Calf thymus DNA [11]) [%] | Activity (Calf thymus DNA [12]) [%] | Activity (Calf thymus DNA [13]) [µmol] | Activity [14] | Activity [15] | Activity [16] | Activity [17] | Activity [18] | Activity (Calf thymus DNA [19]) [Mequiv] | Activity [20] | Activity [21] | also measured
COS(=O)(=O)CCC(=O)Nc1cc(C(=O)Nc2cc(C(=O)NCCCC(=O)NCCCCCC[C@@H]3Cc4cc(O)ccc4[C@H]4CC[C@]5(C)[C@@H](O)CC[C@H]5[C@H]34)n(C)c2)n(C)c1 | 86 | 83 | 173 | 89.5 | 922 | 318 | 420 | 699 | 204 | 79 | 82 | 147 | – | – | – | – | – | – | – | – | Activity (Calf thymus DNA [2]): 1210 µmol
Cn1cc(NC(=O)c2cc(NC(=O)CCS(C)(=O)=O)cn2C)cc1C(=O)NCC(=O)NCCCCCC[C@@H]1Cc2cc(O)ccc2[C@H]2CC[C@]3(C)[C@@H](O)CC[C@H]3[C@H]12 | – | – | – | 122 | – | – | – | – | – | – | – | – | Active | Active | Active | Active | inactive | 4.35 | Active | Active | IC50 (Estrogen receptor): 0.00099 µM
COS(C)(=O)=O | – | – | – | – | – | – | – | – | – | – | – | – | – | – | – | – | – | – | – | – | Activity (Calf thymus DNA [22]): 1240 µmol; Activity (Calf thymus DNA [23]): 9%; Activity (Calf thymus DNA [24]): 31%; Activity (Calf thymus DNA [25]): 1800 µmol
COS(=O)(=O)CCC(=O)Nc1cc(C(=O)Nc2cc(C(=O)NCC(=O)NCCCCCC[C@@H]3Cc4cc(O)ccc4[C@H]4CC[C@]5(C)[C@@H](O)CC[C@H]5[C@H]34)n(C)c2)n(C)c1 | 91 | 89 | 180 | 142 | 1760 | 404 | 482 | 1620 | 404 | 83 | 86 | 194 | – | – | – | – | – | – | – | – | Activity (Calf thymus DNA [2]): 1920 µmol; Activity [26]: Active
Cn1cc(NC(=O)c2cc(NC(=O)CCS(C)(=O)=O)cn2C)cc1C(=O)NCCCC(=O)NCCCCCC[C@@H]1Cc2cc(O)ccc2[C@H]2CC[C@]3(C)[C@@H](O)CC[C@H]3[C@H]12 | – | – | – | 146 | – | – | – | – | – | – | – | – | Active | Active | Active | Active | Active | 4.43 | Active | Active | –
CCCNC(=O)c1cc(NC(=O)c2cc(NC(=O)CCS(=O)(=O)OC)cn2C)cn1C | 95 | 96 | – | 85 | 8230 | 774 | 714 | 4600 | 399 | 95 | 95 | 185 | – | – | – | – | – | – | – | – | Activity (MCF7 [27]): Active
COS(=O)(=O)CCC(=O)Nc1cc(C(=O)Nc2cc(C(=O)NCCC(=O)NCCCCCC[C@@H]3Cc4cc(O)ccc4[C@H]4CC[C@]5(C)[C@@H](O)CC[C@H]5[C@H]34)n(C)c2)n(C)c1 | 95 | 99 | 769 | 39.4 | – | 495 | 409 | 6520 | 253 | 97 | 98 | 93 | – | – | – | – | – | – | – | – | Activity (MCF7 [27]): inactive; EC50 (MCF7 [28]): 50.7 µM; EC50 (MDA-MB-231): 160 µM
Cn1cc(NC(=O)c2cc(NC(=O)CCS(C)(=O)=O)cn2C)cc1C(=O)NCCC(=O)NCCCCCC[C@@H]1Cc2cc(O)ccc2[C@H]2CC[C@]3(C)[C@@H](O)CC[C@H]3[C@H]12 | – | – | – | – | – | – | – | – | – | – | – | – | Active | Active | Active | Active | inactive | 2.54 | Active | Active | IC50 (Estrogen receptor): 0.00148 µM
